From US20230348376A1 (TEIJIN PHARMA LIMITED, priority 2020, published 2023)

Experiments:
[1] = Evaluation of brain penetration in mice (blood and brain concentration at brain Cmax); assay type: in vivo, mouse; conditions: 1 mg/kg single oral dose, C57BL/6J mice; for Concentration in blood (mean ± SD) at brain Cmax / Concentration in brain (mean ± SD) at brain Cmax: n=3; for Kp: male, C57BL/6J, mouse, brain/plasma, po, 1 mg/kg, read-out: Concentration in brain/in blood ratio at brain Cmax
Outline: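 Male C57BL/6J mice (8 weeks, n=3) dosed orally once at 1 […] mg/kg; plasma and brain collected at 0.25, 0.5, 1, 2, 4 and 8 h. Compound extracted with acetonitrile from brain homogenate and plasma, quantified by LC/MS/MS.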

[2] = molecular target: T1, human VDR (Homo sapiens, UniProt P11473); experiment: Evaluation of VDR transcription activity in human osteoblasts (HOS cells), luciferase reporter; conditions: Activity (EC50, VDR transcription activity), HOS cells transfected with human VDR, human RXRα and DR3 luciferase reporter; 21 hours
T1 sequence (P11473 1-427): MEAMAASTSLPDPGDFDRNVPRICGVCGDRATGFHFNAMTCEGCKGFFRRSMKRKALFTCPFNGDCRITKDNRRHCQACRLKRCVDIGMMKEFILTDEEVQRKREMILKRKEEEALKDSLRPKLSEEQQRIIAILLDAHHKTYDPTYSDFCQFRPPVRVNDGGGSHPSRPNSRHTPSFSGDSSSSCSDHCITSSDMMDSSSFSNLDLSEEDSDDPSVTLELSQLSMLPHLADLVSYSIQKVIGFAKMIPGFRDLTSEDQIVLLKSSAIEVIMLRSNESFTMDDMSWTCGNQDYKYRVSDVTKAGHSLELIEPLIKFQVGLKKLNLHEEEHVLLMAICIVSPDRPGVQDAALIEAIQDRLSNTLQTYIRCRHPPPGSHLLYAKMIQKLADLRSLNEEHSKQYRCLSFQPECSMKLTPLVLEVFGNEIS
T1 sequence (P19793 1-462 partner): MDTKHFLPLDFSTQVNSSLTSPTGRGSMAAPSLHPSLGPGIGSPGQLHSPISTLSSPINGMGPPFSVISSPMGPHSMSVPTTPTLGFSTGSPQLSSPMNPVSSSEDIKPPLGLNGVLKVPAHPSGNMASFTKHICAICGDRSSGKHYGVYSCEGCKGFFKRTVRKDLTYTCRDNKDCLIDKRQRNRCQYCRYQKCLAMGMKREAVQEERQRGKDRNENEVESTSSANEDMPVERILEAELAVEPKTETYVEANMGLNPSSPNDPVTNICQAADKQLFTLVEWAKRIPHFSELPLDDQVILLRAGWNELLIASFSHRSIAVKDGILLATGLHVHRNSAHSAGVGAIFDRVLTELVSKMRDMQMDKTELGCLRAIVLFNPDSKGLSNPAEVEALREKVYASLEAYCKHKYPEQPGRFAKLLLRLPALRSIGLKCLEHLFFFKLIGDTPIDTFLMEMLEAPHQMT

[3] = test system: rat oligodendrocyte progenitor cells; experiment: Promotive activity of rat oligodendrocyte progenitor cell differentiation-1 (MBP gene expression, mRNA); assay type: cell-based; conditions: Rattus norvegicus, Oligodendrocyte progenitor cell, 96 h, read-out: promotive activity at T3 base (MBP gene expression; DMSO 0%, T3 100%), 4 days, MBP/β actin mRNA
Protocol: Regarding vitamin D derivatives, which was confirmed to act on the vitamin D receptor (VDR) in Example 352, the promotive activity of oligodendrocyte progenitor cell (OPC) differentiation was evaluated by MBP gene expression (mRNA).
A forebrain obtained from SD rat (Charles River Japan, 1 day old) was crushed with 70 μm Cell Strainer (Falcon #352350), and a cell suspension was prepared by collecting the cells in oligodendrocyte progenitor cell separation medium (20% FBS/2 mM Glutamax (Gibco #35050-061)/i mM sodium pyruvate (Gibco #11360-070)/1% penicillin-streptomycin (Invitrogen #15140-122)/DMEM (Gibco #11960-044)). The cell suspension was seeded in a poly-D-lysine coated T75 flask (Thermo Fisher Scientific #132704) and cultured for about 2 weeks. After culturing, the flask was shaken using a rotary shaker ([…] #WB-101SRC) for about 1 hour (37° C., 100 rpm), and the supernatant was discarded to remove microglia. Subsequently, oligodendrocyte progenitor cell separation medium was added to the flask, and the mixture was similarly shaken for about 22 hours (37° C., 200 rpm), and the supernatant was collected to prepare oligodendrocyte progenitor cells.
The oligodendrocyte progenitor cell prepared was suspended in a differentiation medium (2% B27 (Thermo Fisher Scientific, Inc. #17504-044)/1% penicillin-streptomycin (Invitrogen Corporation #15140-122)/10 ng/mL CNTF (PeproTech Inc. #AF-450-13)/DMEM (Gibco #11960-044)), and seeded on a 96-well plate coated with poly-L-ornithine (FUJIFILM Wako Pure Chemical Corporation #163-27421) under the condition of 0.65×10^4 cells/well, and on a 384-well plate under the condition of 2×10^3 cells/well using an automatic dispensing system (LABCYTE #Echo555). […] After culturing, the cells seeded on the 96-well plate were subjected to immunostaining against MBP using following methods: fixation (4% paraformaldehyde solution, 30 minutes, room temperature), PBS washing, membrane permeation treatment (0.1% Trion X-100 (SIGMA #X100-100ML)/PBS, 3 minutes, room temperature), blocking (3% BSA (SIGMA #A9647-10G)/PBS, 1 hour, room temperature), primary antibody reaction (MBP antibody (abcam plc #ab40390), 2.5 μg/mL, 4° C., 24 hours), PBS washing, secondary antibody reaction (Alexa488 anti-rabbit IgG (Thermo Fisher Scientific, Inc. #A-11034), 5 μg/mL, room temperature, 1 hour), PBS washing, and nuclear staining (Hoechst33342 (DOJINDO #NU043), 10 μg/mL, room temperature, 5 minutes). Subsequently, images of each well were acquired using a fluorescence microscope (KEYENCE CORPORATION #BZ-X800), the number of MBP-positive cells and Hoechst 33342-positive cells were measured using an image analysis application (KEYENCE CORPORATION #BZ-X800 Analyzer), and then the ratio (the number of MBP-positive cells/the number of Hoechst33342-positive cells) was calculated. The cells seeded on the 384-well plate were subjected to real-time PCR using Cells-to-CT 1-Step TaqMan Kit (Thermo Fisher Scientific, Inc. #A25602) and QuantStudio 12K Flex Real-Time PCR System (Thermo Fisher Scientific, Inc. #4472380). The experiment was performed in accordance with the protocol attached to the kit. MBP (Thermo Fisher Scientific, Inc. #Assay ID Rn00690616_ml) and β actin (Thermo Fisher Scientific, Inc. #Assay ID Rn00667869_ml) were used as primers, and the expression levels of each were measured and the ratio (MBP/β actin) was calculated.

[4] = test system: rat oligodendrocyte progenitor cells; experiment: Promotive activity of rat oligodendrocyte progenitor cell differentiation-2 (immunostaining of MBP); assay type: cell-based; conditions: vitamin D derivative 2 μM, T3 30 nM, 4 days
Outline: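 Rat OPCs prepared by shaking in separation medium about 22 h at 37 °C, 200 rpm, and collecting the supernatant.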

Row | Concentration in blood (mean ± SD) at brain Cmax [1] [nM] | Concentration in brain (mean ± SD) at brain Cmax [1] [pmol/g] | Kp [1] | EC50 [2] [nM] | Compound | activation at 1 µM [3] [%] | Mean (number of MBP-positive cells/number of Hoechst33342-positive cells) ([4]; Test 1) | Mean (number of MBP-positive cells/number of Hoechst33342-positive cells) ([4]; Test 2)
1 | 218 ± 31 | 384 ± 40 | 1.76 | 10 to 100 | C[C@H](CN1CC[C@@H](C(F)F)C1)[C@H]1CC[C@H]2/C(=C/C=C3C[C@@H](O)C[C@H](O)C3)CCC[C@]12C [Compound B026, (1R,3R)-5-(2-((1R,3aS,7aR,E)-1-((S)-1-((R)-3-(difluoromethyl)pyrrolidin-1-yl)propan-2-yl)-7a-methyloctahydro-4H-inden-4-ylidene)ethylidene)cyclohexane-1,3-diol] | ≥ 20 | 0.38 | 
2 | 368 ± 26 | 726 ± 88 | 1.97 |  | C=C1[C@H](O)CC(=C/C=C2\CCC[C@]3(C)[C@@H]([C@H](C)CCN4CCOCC4)CC[C@@H]23)C[C@H]1O [Compound D024, (1R,3R)-5-(2-((1R,3aS,7aR,E)-7a-methyl-1-((R)-4-morpholinobutan-2-yl)octahydro-4H-inden-4-ylidene)ethylidene)-2-methylenecyclohexane-1,3-diol] | ≥ 20 |  | 0.39
3 | 320 ± 53 | 237 ± 33 | 0.74 | 10 to 100 | C=C1/C(=C\C=C2/CCC[C@]3(C)[C@@H]([C@H](C)CN4CC[C@H](C(F)F)C4)CC[C@@H]23)C[C@@H](O)[C@H](C)[C@@H]1O [Compound B021, (1R,2S,3 S,Z)-5-(2-((1R,3aS,7aR,E)-1-((S)-1-((S)-3-(difluoromethyl)pyrrolidin-1-yl)propan-2-yl)-7a-methyloctahydro-4H-inden-4-ylidene)ethylidene)-2-methyl-4-methylenecyclohexane-1,3-diol] | ≥ 20 |  | 
4 | 431 ± 46 | 652 ± 85 | 1.51 |  | C=C1/C(=C\C=C2/CCC[C@]3(C)[C@@H]([C@H](C)CN4CC[C@@H](C(F)F)C4)CC[C@@H]23)C[C@@H](O)C[C@@H]1O [Compound B024, (1R,3 S,Z)-5-(2-((1R,3aS,7aR,E)-1-((S)-1-((R)-3-(difluoromethyl)pyrrolidin-1-yl)propan-2-yl)-7a-methyloctahydro-4H-inden-4-ylidene)ethylidene)-4-methylenecyclohexane-1,3-diol] | ≥ 20 | 0.28 | 
5 |  |  |  | 10 to 100 | C=C1[C@H](O)CC(=C/C=C2\CCC[C@]3(C)[C@@H]([C@H](C)CN4CC[C@@H](CCC(F)F)C4)CC[C@@H]23)C[C@H]1O [Compound B062, (1R,3R)-5-(2-((1R,3aS,7aR,E)-1-((S)-1-((R)-3-(3,3-difluoropropyl)pyrrolidin-1-yl)propan-2-yl)-7a-methyloctahydro-4H-inden-4-ylidene)ethylidene)-2-methylenecyclohexane-1,3-diol] | ≥ 20 |  | 
6 |  |  |  | 1 to 10 | C=C1[C@H](O)CC(=C/C=C2\CCC[C@]3(C)[C@@H]([C@H](C)CCN4CCOC(C)(C)C4)CC[C@@H]23)C[C@H]1O [Compound D029, (1R,3R)-5-(2-((1R,3aS,7aR,E)-1-((R)-4-(2,2-dimethylmorpholino)butan-2-yl)-7a-methyloctahydro-4H-inden-4-ylidene)ethylidene)-2-methylenecyclohexane-1,3-diol] | ≥ 20 |  | 
7 |  |  |  | 10 to 100 | C=C1/C(=C\C=C2/CCC[C@]3(C)[C@@H]([C@H](C)CN4CCC[C@H](C(C)(F)F)C4)CC[C@@H]23)C[C@@H](O)[C@H](C)[C@@H]1O [Compound C054, (1R,2S,3S,Z)-5-(2-((1R,3aS,7aR,E)-1-((S)-1-((S)-3-(1,1-difluoroethyl)piperidin-1-yl)propan-2-yl)-7a-methyloctahydro-4H-inden-4-ylidene)ethylidene)-2-methyl-4-methylenecyclohexane-1,3-diol] | ≥ 20 |  | 
8 |  |  |  | 1 to 10 | C=C1[C@H](O)CC(=C/C=C2\CCC[C@]3(C)[C@@H]([C@H](C)CN4CCOC5(CCCC5)C4)CC[C@@H]23)C[C@H]1O [Compound D012, (1R,3R)-5-(2-((1R,3aS,7aR,E)-1-((S)-1-(6-oxa-9-azaspiro[4.5]decan-9-yl)propan-2-yl)-7a-methyloctahydro-4H-inden-4-ylidene)ethylidene)-2-methylenecyclohexane-1,3-diol] | ≥ 20 |  | 
9 |  |  |  | 10 to 100 | C[C@H](CCN1CC[C@H](CC(F)F)C1)[C@H]1CC[C@H]2/C(=C/C=C3C[C@@H](O)C[C@H](O)C3)CCC[C@]12C [Compound B082, (1R,3R)-5-(2-((1R,3aS,7aR,E)-1-((R)-4-((R)-3-(2,2-difluoroethyl)pyrrolidin-1-yl)butan-2-yl)-7a-methyloctahydro-4H-inden-4-ylidene)ethylidene)cyclohexane-1,3-diol] | ≥ 20 |  | 
